Columns and labels:
Assay in all cases: SelectScreen ZLYTE
Assay type in all cases: biochemical
ABL1 T315I = molecular target: T1, ABL1 T315I (Homo sapiens, UniProt P00519, T315I); settings: ATP Km, read-out: Percentage of inhibition
T1 construct: purchased Life Technologies (SelectScreen service)
Outline: (§1)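 Selectivity was assessed by testing 1 μM inhibitor on many kinases at once, recording how strongly each enzyme was inhibited in percent.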

ADRBK2 (GRK3) = molecular target: T2, ADRBK2 (GRK3) (Homo sapiens, UniProt P35626); settings: ATP Km, read-out: Percentage of inhibition
T2 construct: purchased Life Technologies (SelectScreen Whole Panel)
Outline: as §1

ALK = molecular target: T3, ALK (Homo sapiens, UniProt Q9UM73); settings: ATP Km, read-out: Percentage of inhibition
T3 construct: purchased Life Technologies (SelectScreen service)
Outline: as §1

AMPK A1/B1/G1 = molecular target: T4, AMPK A1/B1/G1 (Homo sapiens, UniProt Q13131); settings: ATP Km, read-out: Percentage of inhibition
T4 construct: purchased Life Technologies (SelectScreen Whole Panel service)
Outline: as §1

BRAF = molecular target: T5, BRAF (Homo sapiens, UniProt P15056); settings: ATP 100 µM, read-out: Percentage of inhibition
T5 construct: purchased Life Technologies (SelectScreen Whole Panel)
Outline: as §1

CDK1/cyclin B = molecular target: T6, CDK1/cyclin B (Homo sapiens, UniProt P06493); settings: ATP Km, read-out: Percentage of inhibition
T6 construct: purchased Life Technologies
Outline: as §1

CDK17/cyclin Y = CDK17/cyclin Y (Homo sapiens, UniProt Q00537); settings: ATP Km, read-out: Percentage of inhibition
Outline: as §1

CDK5/p35 = molecular target: T7, CDK5/p35 (Homo sapiens, UniProt Q00535); settings: ATP Km, read-out: Percentage of inhibition
T7 construct: purchased Life Technologies
Outline: as §1

CSNK1A1 (CK1 alpha 1) = molecular target: T8, CSNK1A1 (CK1 alpha 1) (Homo sapiens, UniProt P48729); settings: ATP Km, read-out: Percentage of inhibition
T8 construct: purchased Life Technologies (SelectScreen Whole Panel)
Outline: as §1

CSNK1D (CK1 delta) = molecular target: T9, CSNK1D (CK1 delta) (Homo sapiens, UniProt P48730); settings: ATP Km, read-out: Percentage of inhibition
T9 construct: purchased Life Technologies (SelectScreen service)
Outline: as §1

CSNK1G1 (CK1 gamma 1) = CSNK1G1 (CK1 gamma 1) (Homo sapiens, UniProt Q9HCP0); settings: ATP Km, read-out: Percentage of inhibition
Outline: as §1

EGFR (ErbB1) G719S = molecular target: T10, EGFR (ErbB1) G719S (Homo sapiens, UniProt P00533, G719S); settings: ATP Km, read-out: Percentage of inhibition
T10 construct: purchased Life Technologies (SelectScreen Whole Panel service)
Outline: as §1

EGFR (ErbB1) T790M = molecular target: T11, EGFR (ErbB1) T790M (Homo sapiens, UniProt P00533, T790M); settings: ATP Km, read-out: Percentage of inhibition
T11 construct: purchased Life Technologies
Outline: as §1

EPHA8 = molecular target: T12, EPHA8 (Homo sapiens, UniProt P29322); settings: ATP Km, read-out: Percentage of inhibition
T12 construct: purchased Life Technologies (SelectScreen Whole Panel service)
Outline: as §1

FGFR2 = molecular target: T13, FGFR2 (Homo sapiens, UniProt P21802); settings: ATP Km, read-out: Percentage of inhibition
T13 construct: purchased Life Technologies
Outline: as §1

FGR = molecular target: T14, FGR (Homo sapiens, UniProt P09769); settings: ATP Km, read-out: Percentage of inhibition
T14 construct: purchased Life Technologies (SelectScreen service)
Outline: as §1

FLT4 (VEGFR3) = molecular target: T15, FLT4 (VEGFR3) (Homo sapiens, UniProt P35916); settings: ATP Km, read-out: Percentage of inhibition
T15 construct: purchased Life Technologies (SelectScreen service)
Outline: as §1

FRK (PTK5) = molecular target: T16, FRK (PTK5) (Homo sapiens, UniProt P42685); settings: ATP Km, read-out: Percentage of inhibition
T16 construct: purchased Life Technologies
Outline: as §1

GRK4 = molecular target: T17, GRK4 (Homo sapiens, UniProt P32298); settings: ATP Km, read-out: Percentage of inhibition
T17 construct: purchased Life Technologies
Outline: as §1

GRK5 = molecular target: T18, GRK5 (Homo sapiens, UniProt P34947); settings: ATP Km, read-out: Percentage of inhibition
T18 construct: purchased Life Technologies (SelectScreen Whole Panel service)
Outline: as §1

IKBKE (IKK epsilon) = molecular target: T19, IKBKE (IKK epsilon) (Homo sapiens, UniProt Q14164); settings: ATP Km, read-out: Percentage of inhibition
T19 construct: purchased Life Technologies (SelectScreen Whole Panel service)
Outline: as §1

JAK1 = molecular target: T20, JAK1 (Homo sapiens, UniProt P23458); settings: ATP Km, read-out: Percentage of inhibition
T20 construct: purchased Life Technologies (SelectScreen service)
Outline: as §1

LYN A = molecular target: T21, LYN A (Homo sapiens, UniProt P07948); settings: ATP Km, read-out: Percentage of inhibition
T21 construct: purchased Life Technologies (SelectScreen Whole Panel)
Outline: as §1

MAP3K8 (COT) = molecular target: T22, MAP3K8 (COT) (Homo sapiens, UniProt P41279); settings: ATP 100 µM, read-out: Percentage of inhibition
T22 construct: purchased Life Technologies (SelectScreen service)
Outline: as §1

MAP4K5 (KHS1) = molecular target: T23, MAP4K5 (KHS1) (Homo sapiens, UniProt Q9Y4K4); settings: ATP Km, read-out: Percentage of inhibition
T23 construct: purchased Life Technologies (SelectScreen service)
Outline: as §1

MARK1 (MARK) = molecular target: T24, MARK1 (MARK) (Homo sapiens, UniProt Q9P0L2); settings: ATP Km, read-out: Percentage of inhibition
T24 construct: purchased Life Technologies (SelectScreen)
Outline: as §1

MET (cMet) = MET (cMet) (Homo sapiens, UniProt P08581); settings: ATP Km, read-out: Percentage of inhibition
Outline: as §1

NEK2 = molecular target: T25, NEK2 (Homo sapiens, UniProt P51955); settings: ATP Km, read-out: Percentage of inhibition
T25 construct: purchased Life Technologies (SelectScreen Whole Panel)
Outline: as §1

NEK9 = molecular target: T26, NEK9 (Homo sapiens, UniProt Q8TD19); settings: ATP Km, read-out: Percentage of inhibition
T26 construct: purchased Life Technologies
Outline: as §1

PDGFRA T674I = PDGFRA T674I (Homo sapiens, UniProt P16234, T674I); settings: ATP Km, read-out: Percentage of inhibition
Outline: as §1

PDK1 Direct = molecular target: T27, PDK1 Direct (Homo sapiens, UniProt O15530); settings: ATP Km, read-out: Percentage of inhibition
T27 construct: purchased Life Technologies (SelectScreen Whole Panel service)
Outline: as §1

PIM2 = molecular target: T28, PIM2 (Homo sapiens, UniProt Q9P1W9); settings: ATP Km, read-out: Percentage of inhibition
T28 construct: purchased Life Technologies (SelectScreen Whole Panel service)
Outline: as §1

PLK3 = molecular target: T29, PLK3 (Homo sapiens, UniProt Q9H4B4); settings: ATP Km, read-out: Percentage of inhibition
T29 construct: purchased Life Technologies (SelectScreen service)
Outline: as §1

PRKCA (PKC alpha) = PRKCA (PKC alpha) (Homo sapiens, UniProt P17252); settings: ATP Km, read-out: Percentage of inhibition
Outline: as §1

RAF1 (cRAF) Y340D Y341D = molecular target: T30, RAF1 (cRAF) Y340D Y341D (Homo sapiens, UniProt P04049, Y340D/Y341D); settings: ATP 100 µM, read-out: Percentage of inhibition
T30 construct: purchased Life Technologies
Outline: as §1

RET A883F = molecular target: T31, RET A883F (Homo sapiens, UniProt P07949, A883F); settings: ATP Km, read-out: Percentage of inhibition
T31 construct: purchased Life Technologies (SelectScreen service)
Outline: as §1

STK22B (TSSK2) = molecular target: T32, STK22B (TSSK2) (Homo sapiens, UniProt Q96PF2); settings: ATP Km, read-out: Percentage of inhibition
T32 construct: purchased Life Technologies
Outline: as §1

STK23 (MSSK1) = molecular target: T33, STK23 (MSSK1) (Homo sapiens, UniProt Q9UPE1); settings: ATP Km, read-out: Percentage of inhibition
T33 construct: purchased Life Technologies
Outline: as §1

T5 sequence (P15056 whole entry): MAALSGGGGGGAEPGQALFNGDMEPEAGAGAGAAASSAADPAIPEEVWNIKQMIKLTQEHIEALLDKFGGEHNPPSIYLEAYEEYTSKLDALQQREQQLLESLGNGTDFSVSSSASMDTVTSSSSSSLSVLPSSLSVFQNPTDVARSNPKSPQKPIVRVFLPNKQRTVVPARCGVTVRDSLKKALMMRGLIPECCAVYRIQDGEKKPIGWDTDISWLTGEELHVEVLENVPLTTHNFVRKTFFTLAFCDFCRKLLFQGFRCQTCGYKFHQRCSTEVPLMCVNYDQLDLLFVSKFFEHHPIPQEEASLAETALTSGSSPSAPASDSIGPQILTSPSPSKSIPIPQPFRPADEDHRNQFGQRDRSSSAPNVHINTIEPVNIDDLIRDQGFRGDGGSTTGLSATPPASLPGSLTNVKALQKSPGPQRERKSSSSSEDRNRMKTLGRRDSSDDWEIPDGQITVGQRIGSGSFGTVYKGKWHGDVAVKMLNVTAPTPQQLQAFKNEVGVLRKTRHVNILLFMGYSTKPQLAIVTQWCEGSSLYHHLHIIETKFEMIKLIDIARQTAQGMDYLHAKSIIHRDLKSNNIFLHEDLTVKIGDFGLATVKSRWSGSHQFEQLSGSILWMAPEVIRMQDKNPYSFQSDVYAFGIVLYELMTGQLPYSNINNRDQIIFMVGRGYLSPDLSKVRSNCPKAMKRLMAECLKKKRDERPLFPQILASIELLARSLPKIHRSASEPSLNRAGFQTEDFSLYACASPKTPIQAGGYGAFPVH
T20 sequence (P23458 whole entry): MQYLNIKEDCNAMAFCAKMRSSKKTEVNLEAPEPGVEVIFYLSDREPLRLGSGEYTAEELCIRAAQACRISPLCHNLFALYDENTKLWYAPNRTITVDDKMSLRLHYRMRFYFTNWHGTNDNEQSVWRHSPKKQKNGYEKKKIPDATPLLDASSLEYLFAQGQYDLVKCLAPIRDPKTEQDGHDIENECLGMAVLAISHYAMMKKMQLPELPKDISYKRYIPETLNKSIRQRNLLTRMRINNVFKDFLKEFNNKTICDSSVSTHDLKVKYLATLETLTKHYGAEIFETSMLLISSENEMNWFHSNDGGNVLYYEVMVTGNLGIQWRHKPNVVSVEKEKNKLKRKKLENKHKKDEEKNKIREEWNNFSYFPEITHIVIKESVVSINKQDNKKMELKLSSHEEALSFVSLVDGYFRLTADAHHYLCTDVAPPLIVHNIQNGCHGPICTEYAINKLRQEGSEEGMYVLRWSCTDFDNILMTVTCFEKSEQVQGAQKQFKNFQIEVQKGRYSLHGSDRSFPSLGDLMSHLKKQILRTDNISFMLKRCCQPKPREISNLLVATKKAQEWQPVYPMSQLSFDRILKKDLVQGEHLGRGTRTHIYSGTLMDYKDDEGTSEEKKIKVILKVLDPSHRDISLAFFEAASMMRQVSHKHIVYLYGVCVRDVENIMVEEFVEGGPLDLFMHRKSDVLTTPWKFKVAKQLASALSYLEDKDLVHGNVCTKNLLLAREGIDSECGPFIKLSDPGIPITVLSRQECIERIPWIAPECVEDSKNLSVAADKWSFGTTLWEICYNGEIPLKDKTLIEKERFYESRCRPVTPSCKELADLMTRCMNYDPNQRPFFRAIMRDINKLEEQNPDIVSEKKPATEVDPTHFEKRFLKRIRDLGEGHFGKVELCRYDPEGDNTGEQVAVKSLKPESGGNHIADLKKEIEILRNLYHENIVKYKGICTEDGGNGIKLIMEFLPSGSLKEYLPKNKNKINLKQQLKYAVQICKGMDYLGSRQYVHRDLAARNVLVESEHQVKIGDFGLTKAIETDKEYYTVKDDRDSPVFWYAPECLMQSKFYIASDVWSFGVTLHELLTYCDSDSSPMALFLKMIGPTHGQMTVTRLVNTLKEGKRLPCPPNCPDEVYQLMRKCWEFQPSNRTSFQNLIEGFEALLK
T13 sequence (P21802 22-821): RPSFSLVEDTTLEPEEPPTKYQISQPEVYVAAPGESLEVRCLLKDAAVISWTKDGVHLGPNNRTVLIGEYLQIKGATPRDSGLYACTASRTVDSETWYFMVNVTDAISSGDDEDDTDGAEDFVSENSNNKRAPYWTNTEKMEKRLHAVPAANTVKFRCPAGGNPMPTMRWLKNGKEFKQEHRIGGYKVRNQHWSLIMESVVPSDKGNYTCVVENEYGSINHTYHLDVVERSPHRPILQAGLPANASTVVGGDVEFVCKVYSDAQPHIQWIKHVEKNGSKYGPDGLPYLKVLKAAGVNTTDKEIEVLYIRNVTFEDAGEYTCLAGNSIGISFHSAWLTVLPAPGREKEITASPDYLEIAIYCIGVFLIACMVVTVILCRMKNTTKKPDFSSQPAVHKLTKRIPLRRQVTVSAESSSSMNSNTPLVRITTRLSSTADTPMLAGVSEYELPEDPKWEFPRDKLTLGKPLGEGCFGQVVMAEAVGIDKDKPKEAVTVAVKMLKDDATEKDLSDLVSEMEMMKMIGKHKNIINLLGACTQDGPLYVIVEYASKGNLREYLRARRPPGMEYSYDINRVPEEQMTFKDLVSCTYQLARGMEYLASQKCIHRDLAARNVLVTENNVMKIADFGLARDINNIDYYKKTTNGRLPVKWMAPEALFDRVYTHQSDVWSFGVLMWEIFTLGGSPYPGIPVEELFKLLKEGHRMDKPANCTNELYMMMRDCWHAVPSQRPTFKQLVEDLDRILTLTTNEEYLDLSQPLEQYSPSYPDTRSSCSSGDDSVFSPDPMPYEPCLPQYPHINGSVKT
T26 sequence (Q8TD19 whole entry): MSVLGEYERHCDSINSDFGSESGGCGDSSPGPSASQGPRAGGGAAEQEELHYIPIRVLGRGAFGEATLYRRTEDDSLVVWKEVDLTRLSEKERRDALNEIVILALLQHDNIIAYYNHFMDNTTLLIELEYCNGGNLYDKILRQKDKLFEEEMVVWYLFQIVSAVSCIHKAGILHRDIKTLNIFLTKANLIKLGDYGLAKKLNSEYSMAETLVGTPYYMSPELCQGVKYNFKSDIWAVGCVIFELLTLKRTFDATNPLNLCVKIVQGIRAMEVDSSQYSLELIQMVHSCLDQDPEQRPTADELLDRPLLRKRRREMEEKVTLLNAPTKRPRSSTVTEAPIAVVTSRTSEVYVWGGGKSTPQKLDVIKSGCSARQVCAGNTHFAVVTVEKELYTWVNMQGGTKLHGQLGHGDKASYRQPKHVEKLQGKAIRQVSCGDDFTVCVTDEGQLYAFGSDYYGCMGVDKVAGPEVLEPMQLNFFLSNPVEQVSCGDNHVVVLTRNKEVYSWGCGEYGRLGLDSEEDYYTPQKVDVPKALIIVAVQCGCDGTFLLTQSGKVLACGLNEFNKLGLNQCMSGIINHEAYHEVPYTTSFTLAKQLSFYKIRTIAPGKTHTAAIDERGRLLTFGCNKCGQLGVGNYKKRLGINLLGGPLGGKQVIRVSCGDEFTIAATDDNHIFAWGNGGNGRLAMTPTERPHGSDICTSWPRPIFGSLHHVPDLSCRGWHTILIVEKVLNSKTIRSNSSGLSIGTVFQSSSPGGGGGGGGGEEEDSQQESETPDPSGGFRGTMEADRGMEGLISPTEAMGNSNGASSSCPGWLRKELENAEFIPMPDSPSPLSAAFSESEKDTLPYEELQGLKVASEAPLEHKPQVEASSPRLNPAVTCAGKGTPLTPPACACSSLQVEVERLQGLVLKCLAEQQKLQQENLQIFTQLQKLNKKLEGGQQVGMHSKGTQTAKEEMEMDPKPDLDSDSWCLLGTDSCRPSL
T30 sequence (P04049 whole entry Y340D/Y341D): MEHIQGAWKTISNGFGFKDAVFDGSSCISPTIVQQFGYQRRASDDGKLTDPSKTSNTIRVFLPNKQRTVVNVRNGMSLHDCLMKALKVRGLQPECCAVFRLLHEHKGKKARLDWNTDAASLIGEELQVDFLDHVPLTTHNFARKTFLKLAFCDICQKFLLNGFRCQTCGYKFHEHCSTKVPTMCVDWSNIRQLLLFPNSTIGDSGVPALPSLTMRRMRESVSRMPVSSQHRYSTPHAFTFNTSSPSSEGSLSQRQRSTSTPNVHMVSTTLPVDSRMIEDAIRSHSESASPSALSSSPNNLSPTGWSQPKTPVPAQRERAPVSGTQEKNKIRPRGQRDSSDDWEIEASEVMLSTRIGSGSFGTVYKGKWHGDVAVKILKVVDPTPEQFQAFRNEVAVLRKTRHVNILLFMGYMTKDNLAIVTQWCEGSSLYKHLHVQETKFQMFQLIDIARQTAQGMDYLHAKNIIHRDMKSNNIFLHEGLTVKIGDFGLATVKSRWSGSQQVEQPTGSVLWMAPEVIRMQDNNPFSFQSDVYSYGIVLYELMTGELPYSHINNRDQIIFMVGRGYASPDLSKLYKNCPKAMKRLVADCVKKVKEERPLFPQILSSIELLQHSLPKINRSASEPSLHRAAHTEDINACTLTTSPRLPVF
T18 sequence (P34947 whole entry): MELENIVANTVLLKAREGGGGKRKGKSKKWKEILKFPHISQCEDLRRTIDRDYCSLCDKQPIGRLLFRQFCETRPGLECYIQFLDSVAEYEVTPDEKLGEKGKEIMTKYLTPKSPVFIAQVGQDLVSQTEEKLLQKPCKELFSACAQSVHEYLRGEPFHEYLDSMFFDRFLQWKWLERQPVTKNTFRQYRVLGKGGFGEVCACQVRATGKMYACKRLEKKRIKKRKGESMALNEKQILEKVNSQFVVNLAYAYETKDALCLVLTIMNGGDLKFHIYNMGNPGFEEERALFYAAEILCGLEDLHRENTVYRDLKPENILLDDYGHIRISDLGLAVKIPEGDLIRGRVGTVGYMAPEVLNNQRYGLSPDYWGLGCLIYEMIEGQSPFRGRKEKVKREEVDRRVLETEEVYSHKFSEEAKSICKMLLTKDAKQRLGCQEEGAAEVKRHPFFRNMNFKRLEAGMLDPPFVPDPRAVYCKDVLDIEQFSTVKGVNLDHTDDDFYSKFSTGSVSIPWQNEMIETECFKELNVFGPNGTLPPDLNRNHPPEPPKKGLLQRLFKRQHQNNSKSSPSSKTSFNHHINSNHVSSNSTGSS

Structure (SMILES): COc1ccc2[nH]c3c(=O)[nH]c4ccc(O)cc4c3c2c1 [Compound 55, 2-Hydroxy-10-methoxy-5,7-dihydro-6H-indolo[2,3-c]quinolin-6-one]
- inhibition at 1 µM (ABL1 T315I): 24%
- inhibition at 1 µM (ADRBK2 (GRK3)): 0%
- inhibition at 1 µM (ALK): 24%
- inhibition at 1 µM (AMPK A1/B1/G1): 47%
- inhibition at 1 µM (BRAF): 100%
- inhibition at 1 µM (CDK1/cyclin B): 35%
- inhibition at 1 µM (CDK17/cyclin Y): 20%
- inhibition at 1 µM (CDK5/p35): 32%
- inhibition at 1 µM (CSNK1A1 (CK1 alpha 1)): 51%
- inhibition at 1 µM (CSNK1D (CK1 delta)): 81%
- inhibition at 1 µM (CSNK1G1 (CK1 gamma 1)): 20%
- inhibition at 1 µM (EGFR (ErbB1) G719S): 11%
- inhibition at 1 µM (EGFR (ErbB1) T790M): 30%
- inhibition at 1 µM (EPHA8): 10%
- inhibition at 1 µM (FGFR2): 42%
- inhibition at 1 µM (FGR): 81%
- inhibition at 1 µM (FLT4 (VEGFR3)): 72%
- inhibition at 1 µM (FRK (PTK5)): 33%
- inhibition at 1 µM (GRK4): 42%
- inhibition at 1 µM (GRK5): 18%
- inhibition at 1 µM (IKBKE (IKK epsilon)): 17%
- inhibition at 1 µM (JAK1): 23%
- inhibition at 1 µM (LYN A): 49%
- inhibition at 1 µM (MAP3K8 (COT)): 91%
- inhibition at 1 µM (MAP4K5 (KHS1)): 90%
- inhibition at 1 µM (MARK1 (MARK)): 9%
- inhibition at 1 µM (MET (cMet)): 7%
- inhibition at 1 µM (NEK2): -11%
- inhibition at 1 µM (NEK9): 4%
- inhibition at 1 µM (PDGFRA T674I): 6%
- inhibition at 1 µM (PDK1 Direct): 17%
- inhibition at 1 µM (PIM2): 18%
- inhibition at 1 µM (PLK3): 25%
- inhibition at 1 µM (PRKCA (PKC alpha)): 14%
- inhibition at 1 µM (RAF1 (cRAF) Y340D Y341D): 94%
- inhibition at 1 µM (RET A883F): 85%
- inhibition at 1 µM (STK22B (TSSK2)): 5%
- inhibition at 1 µM (STK23 (MSSK1)): 4%

Source: publication PMC9186362, “Design and biological evaluation of substituted 5,7-dihydro-6H-indolo[2,3-c]quinolin-6-one as novel selective Haspin inhibitors” (Journal of Enzyme Inhibition and Medicinal Chemistry, 2022)
